System: rat hippocampal slices
Assay: Reduction of azide-induced ischemic efflux of glutamate in rat hippocampal slices
Format: cell-based
Details: AUC vs control, statistically significant
Method: Adatanserin was evaluated for its ability to reduce the azide-induced ischemic efflux of glutamate in rat hippocampal slices. Three Krebs buffers were used in the experiments. Normal Krebs buffer consisted of a solution containing the following: (122 mM NaCl, 3 mM KCl, 24 mM NaHCO3, 10 mM glucose, 0.315 mM K2HPO4, 1.2 mM MgSO4, 4 mM CaCl2). Aglycemic Krebs buffer was similar to the normal buffer with the exception that glucose was not added. Ischemic Krebs buffer was the aglycemic solution which contained varying concentrations of sodium azide (0-30 mM).
Rat hippocampi were dissected on a cold platform and suspended in ice cold oxygenated normal Krebs buffer. The tissue was cross-chopped at 350 microns on a McIlwain tissue chopper, then resuspended and washed three times with ice cold normal Krebs buffer. […] Amino acid concentrations were analyzed with reverse phase HPLC on a catacholarine column (Keystone Scinetific, 150×3 mm) employing an 0.05 M acetate/methanol gradient. […] Amino acids were visualized by derivatization with naphthalene-2,3-dicarboxaldehyde and fluorimetric detection (Dawson, L. A. et al., Improved Temporal Resolution of Microdialysis Measurement of Glutamate and Aspartate Using Capillary Electrophoresis with Laser Induced Fluorescence Detection. J. Chromatogr. B 1997, 694, 1204-1212). […]

Structure (SMILES): O=C(NCCN1CCN(c2ncccn2)CC1)C12CC3CC(CC(C3)C1)C2 [adatanserin, N-[2-[4-(2-pyrimidinyl)-1-piperazinyl]ethyl]tricyclo[3.3.1.13.7]decane-1-carboxamide]
- reduction of glutamate release (azide-induced ischemic efflux) (adatanserin 100 nM): 72%
- reduction of glutamate release (azide-induced ischemic efflux) (adatanserin 1000 nM (1 μM)): 71%

— patent US20030092753A1, “Methods for the treatment and prevention of neurodegenerative conditions” (Wyeth, priority 1999, published 2003)
